Results: article PMC12624434 (ACS Pharmacology & Translational Science, 2025)
Several values for one entry are separate records, joined by “and”; a condition that tells them apart may be missing. Identical values can stand only once. Like-named read-outs stand apart in the source and are kept apart here.

Experiments:
[1] = target: T1, NRP1-a1,b1 (Homo sapiens, UniProt O14786); assay: bt-VEGFA cell-free competition binding assay (plate-based)
T1 sequence (O14786 273-427 limits assumed): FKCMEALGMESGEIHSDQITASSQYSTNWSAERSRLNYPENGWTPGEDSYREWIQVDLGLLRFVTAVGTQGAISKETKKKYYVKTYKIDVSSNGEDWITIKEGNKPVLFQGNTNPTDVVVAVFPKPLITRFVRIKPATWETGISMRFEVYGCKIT
Protocol: The assay was conducted as previously described. Briefly, the 96-well plates were precoated with NRP1 protein at 3 μg/mL overnight at 4 °C. On the following day, the plates were treated with blocking buffer (PBS containing 1%1% BSA) and washed three times with wash buffer (PBS containing 0.1% Tween-20). The various concentrations of compounds diluted in PBS containing 1%1% DMSO were added, followed by addition of 0.25 nM of bt-VEGFA165. After 2 h of incubation at room temperature, the plates were washed three times with wash buffer. The bound bt-VEGFA165 to NRP1 was detected by streptavidin– horseradish peroxidase conjugates and the enzyme substrate, and measured using a Tecan Genius plate reader at 450 nm with a reference wavelength at 595 nm. Nonspecific binding was determined in the absence of NRP1-coated wells of the plates.

[2] = test system: vascular permeability of perfused mouse retina blood vessels; assay: Ex vivo retina permeability assay (sulforhodamine B extravasation); assay type: cell-based
Text: C57Bl/6J mice were culled through CO2 overdose before proceeding with the cannulation of the common carotid arteries and perfusion of the vasculature, as previously described. Each eye was subsequently removed and enucleated. The retina was isolated with the attached sclera, flattened onto a silicone base (SYLGARD 184, Merck), and held in position by a metal ring and pins. Retinal explants were visualized with an Olympus 10× objective on an upright Axiophot fluorescence microscope (Zeiss) and continuously superfused with Krebs solution (124 mM NaCl, 5 mM KCl, 2 mM MgSO4, 22 mM […], 0.125 mM NaH2PO4 and 2 mM CaCl2, pH 7.4) supplemented with 5 mM glucose and 0.1% BSA w/v. A radial vein was injected with 1 mg/mL sulforhodamine B (479 Da; Merck) in Krebs solution using a glass needle to visualize the vasculature under a TRITC filter with an Olympus 40× water immersion objective. For permeability measurements, the fluorescence of a selected microvessel was recorded continuously by time-lapse imaging with a CCD camera (Hamamatsu) and HCImageLive software (Hamamatsu) for at least 30 s to obtain a baseline. VEGFA164 or EG00229 in Krebs solution were then added dropwise onto the retina. […] Time-lapse series were analyzed using ImageJ (NIH Bethesda). […] Permeability measurements from at least three different ex vivo retinal preparations were combined and expressed as mean ± SD. […]

[3] = target: T2, NRP1 b1 domain (Homo sapiens, UniProt O14786); assay: SPR binding to immobilized NRP1 b1 domain (Biacore 4000, CM5 chip); settings: Figure 2B; read-out: KD (kinetics)
T2 construct: with the purified recombinant NRP1 b1 domain immobilized on the chip; inferred from Ni-NTA capture), TEV-cleavable (cleaved yes); made in house; host or cells: E. coli Rosetta (DE3)
T2 sequence (O14786 275-424 limits assumed): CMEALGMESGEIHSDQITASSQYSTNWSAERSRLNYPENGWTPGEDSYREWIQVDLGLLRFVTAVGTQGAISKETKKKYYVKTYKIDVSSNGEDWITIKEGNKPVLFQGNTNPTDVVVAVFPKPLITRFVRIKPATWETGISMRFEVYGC

[4] = test system: VEGFA-induced mechanical allodynia in rats; assay: VEGFA-induced mechanical allodynia (von Frey), intraplantar injection; assay type: in vivo, rat; settings: 30 μM coinjected with VEGFA165 10 nM, 50 μL intraplantar; male and female rats
Protocol: The procedure was performed as reported previously. Briefly, rats were gently restrained in a fabric cloth and given an intraplantar injection in the hind-paw containing VEGFA165 (10 nM) and compound (EG00229 or 12h, at 30 or 10 μM) alone or in combination in 50 μL of PBS vehicle (NaCl 137 mM, KCl 2.5 mM, Na2HPO4 10 mM, and KH2PO4 1.8 mM), using a 31G needle.

[5] = test system: T180/Y182 phosphorylated p38 (P-p38) in retinal endothelium; assay: VEGFA-induced p38 phosphorylation in ex vivo mouse retina (immunostaining); assay type: cell-based
Protocol: Retinae from C57Bl/6J mice were fixed in 4% formaldehyde in PBS for 1 h and washed three times with PBS. After 1 h in blocking buffer (3% Triton X-100, 1%1% Tween and 0.5% BSA in 2× PBS), retinae were immunostained by incubation with rabbit anti-P-p38 MAPK (Thr180/Tyr182) antibody (Cell Signaling) and biotin-conjugated Isolectin B4 (IB4, Merck) overnight at 4 °C, followed by Alexa Fluor 555–conjugated goat antirabbit antibodies (Invitrogen) and Alexa Fluor 488-conjugated streptavidin (Invitrogen) respectively for 1 h at rt. Images were acquired with a Zeiss Axioskop 2 microscope, using a ph3 Plan-Apochromat 63×/1.40 oil objective, Hamamatsu camera and the HCImage software. Each image was acquired as an RGB color image and then processed with ImageJ software version 1.52a (NIH Bethesda). Channels were split to separate the IB4 staining (green channel) from the P-p38 staining (red channel). The threshold function was used on the IB4 image to determine the area of the vessels and to generate a mask that was restored in the red channel image to measure the area of the vessels positive to P-p38 staining. The P-p38 staining area was normalized against the area stained with IB4. Three retinae from three different mice per condition were used for analysis. One-way ANOVA was used to compare the different treatments.

N=C(N)NCCC[C@H](NC(=O)c1sccc1NS(=O)(=O)c1cc(NCc2csc(N3CCNCC3)n2)cc2cccnc12)C(=O)O.O=CO [Compound 12h, (2S)-5-Guanidino-2-[[3-[[6-[(2-piperazin-1-ylthiazol-4-yl)-methylamino]-8-quinolyl]-sulfonylamino]-thiophene-2-carbonyl]-amino]-pentanoic Acid, Formic Acid]
IC50 ([1]; 0.25 nM bt-VEGFA165, mean ± SEM, at least three independent experiments, read-out: Competition analysis bt-VEGFA, cell-free NRP1-a1,b1 IC50): 320 ± 40 nM
IC50 ([1]; plate-based assay, Figure 2D, read-out: IC50, competitive inhibition of bt-VEGFA binding to NRP1): 362 nM and < 500 nM
effect on VEGFA-induced dye extravasation ([2]; 30 μM, 15 min preincubation of retinal explants): significantly reduced VEGFA-induced dye extravasation
effect on vascular permeability, alone ([2]; compound alone, ex vivo mouse retina): had no effect on vascular permeability
Kd [3]: 346 nM
effect on VEGFA-induced mechanical allodynia (paw withdrawal threshold, AUC 0-6 h) [4]: comparable antinociceptive effects in males and females
p38 phosphorylation when added alone ([5]; 30 μM alone, 5 min): did not induce p38 phosphorylation
effect on VEGFA-induced p38 phosphorylation in retinal endothelium ([5]; 30 μM, 15 min prior to VEGFA165 stimulation): prevented VEGFA-induced p38 phosphorylation
